# According to US11008332B2, “Pharmaceutical composition for preventing or treating aging-related diseases containing decursin derivative as active ingredient” (PRG S&TECH INC., priority 2017, dated 2021):
# “Also recorded” adds a separate entry of the source.
# Tests used:
# [1] = test system: Lmna^G609G/G609G, progeria model mouse; experiment: Life span, body weight and morphology of Lmna^G609G/G609G progeria model mice; assay type: in vivo
# Description: The experiments were performed in the Association for Assessment and Accreditation of Laboratory Animal Care certified facility, in compliance with animal policies approved by Pusan National University.
# Lmna^G609G/609G mice were generated as timed mating of heterozygous Lmna^+/G609G provided by Carlos López-Otin (Universidad de Oviedo, Asturias, Oviedo, Spain).
# SLC-D011, mixed with DMOS and PBS, were intraperitoneally injected in mice (20 mg/kg twice per week from 5-week-old). In addition, SLC-D011 dissolved at a concentration of 10 mg/ml in monoolein-based solution was orally administrated to mice in 5 times a week and control mice were treated in the same conditions by administering monoolein-based solution alone.
# Lmna^G609G/609G mice were treated with clear chemical solution throughout life span, starting from 5 weeks of age. Lmna^+/G609G were treated via intraperitoneal, starting from 32 weeks of age.
# [2] = Liver microsomal stability, rat; assay type: in vitro ADME
# [3] = test system: collagen 1A expression in normal fibroblast; experiment: Collagen 1A expression in normal fibroblasts 9N and N46 (Western blot); assay type: cell-based, human; conditions: normal fibroblast 9N and N46, 2 or 5 μM, 24 hours, FIG. 5B
# Description: (§1) Human keratinocyte HaCaT cells and normal fibroblast 9N (GM 00038, person) and N46 (AG13299, person) were treated with 2 or 5 μM SLC-D011 and incubated for 24 hours and then the amount of collagen 1A expression was confirmed in HaCaT cells and fibroblasts was confirmed.
# [4] = Liver microsomal stability, mouse; assay type: in vitro ADME
# [5] = Plasma stability, rat; assay type: in vitro ADME
# [6] = Chemical pharmacokinetic (PK) analysis, blood/plasma concentration by LC-MS/MS; assay type: in vivo; conditions: FIG. 2A
# Description: For PK analysis, 5 mg/kg of JH4 in 10% DMSO, 5% Tween […] solution was intravenously injected and 10 mg/kg of JH4 in 10% NMP and 90% PEG400 solution was per orally delivered. At the setting time-points, blood concentration of JH4 was determined by LC-MS/MS analysis and the PK analysis for other chemicals was also tested by the similar protocol.
# [7] = test system: HGPS cells; experiment: Immunofluorescence staining of HGPS cells (nuclear morphology, progerin, H3K9me3); assay type: cell-based, Human
# Description: (§2) Human fibroblast cells from HGPS patients (AG03198, person; AG03199; person), WS patients (AG06300, person; AG03141, person; AG00780, person) and controls (GM 00038, person) were obtained from the Coriell Cell Repositories (Camden, N.J., USA) and were maintained in EMEM, containing 15% FBS, 2 mM glutamine or HEMEM with 26 mM HEPES without antibiotics.
# (§3) Cells were seeded on a cover glass and transfected with the indicated vectors.
# (§4) After fixing with 100% methanol or 1% paraformaldehyde (PFA) for 1 h at 4° C., cells were incubated with blocking buffer (PBS+anti-human-Ab; 1:400) for 1 h.
# (§5) After washing with PBS twice, cells were incubated with anti-Lamin A/C, Progerin or H3K9Me3 in blocking buffer (1:200) overnight and sequentially with anti-goat Ab-FITC or anti-rabbit Ab-rhodamin in blocking buffer (1:500) for 7 h and mounted, and nucleus was stained with DAPI. Thereafter Immunofluorescence signal was detected by fluorescence microscopy (Zeiss and Logos).
# (§6) For counting nuclear deformed cell, obtained immunofluorescence images were used. Nuclear membrane showing abnormalities, dependent on Lamin A staining, were counted from randomly selected field. Counted cells were calculated percentage.
# [8] = target: CYP2C19 (Homo sapiens, UniProt P33261); experiment: CYP inhibition CYP2C19; assay type: in vitro ADME
# Sequence of CYP2C19 (P33261 whole entry): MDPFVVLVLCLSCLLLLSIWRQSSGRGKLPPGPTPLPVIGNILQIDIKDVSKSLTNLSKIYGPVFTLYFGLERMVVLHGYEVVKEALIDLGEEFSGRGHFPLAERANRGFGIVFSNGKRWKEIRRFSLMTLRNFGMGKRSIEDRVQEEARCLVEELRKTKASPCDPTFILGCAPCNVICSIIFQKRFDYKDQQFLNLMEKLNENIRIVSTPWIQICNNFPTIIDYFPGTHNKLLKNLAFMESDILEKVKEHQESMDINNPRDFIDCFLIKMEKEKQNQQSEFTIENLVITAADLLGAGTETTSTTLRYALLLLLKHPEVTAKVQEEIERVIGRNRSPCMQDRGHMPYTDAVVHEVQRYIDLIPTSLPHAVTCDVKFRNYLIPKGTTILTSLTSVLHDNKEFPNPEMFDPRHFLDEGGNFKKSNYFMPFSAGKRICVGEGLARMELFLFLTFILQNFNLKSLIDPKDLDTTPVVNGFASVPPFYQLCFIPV
# Description: (§7) In vitro ADME studies (plasma protein binding, CYP inhibition, microsomal stability, plasma stability and hERG inhibition) were performed by New drug development center though standard protocols.
# [9] = Plasma stability, human; assay type: in vitro ADME
# [10] = test system: Lmna^wt/G609G mice; experiment: Life span and morphology of Lmna^wt/G609G mice; assay type: in vivo, mouse
# [11] = target: hERG ion channel (Homo sapiens, UniProt Q12809); experiment: hERG inhibition (in vitro ADME); conditions: in vitro ADME analysis, FIG. 2B
# Sequence of hERG ion channel (Q12809 whole entry): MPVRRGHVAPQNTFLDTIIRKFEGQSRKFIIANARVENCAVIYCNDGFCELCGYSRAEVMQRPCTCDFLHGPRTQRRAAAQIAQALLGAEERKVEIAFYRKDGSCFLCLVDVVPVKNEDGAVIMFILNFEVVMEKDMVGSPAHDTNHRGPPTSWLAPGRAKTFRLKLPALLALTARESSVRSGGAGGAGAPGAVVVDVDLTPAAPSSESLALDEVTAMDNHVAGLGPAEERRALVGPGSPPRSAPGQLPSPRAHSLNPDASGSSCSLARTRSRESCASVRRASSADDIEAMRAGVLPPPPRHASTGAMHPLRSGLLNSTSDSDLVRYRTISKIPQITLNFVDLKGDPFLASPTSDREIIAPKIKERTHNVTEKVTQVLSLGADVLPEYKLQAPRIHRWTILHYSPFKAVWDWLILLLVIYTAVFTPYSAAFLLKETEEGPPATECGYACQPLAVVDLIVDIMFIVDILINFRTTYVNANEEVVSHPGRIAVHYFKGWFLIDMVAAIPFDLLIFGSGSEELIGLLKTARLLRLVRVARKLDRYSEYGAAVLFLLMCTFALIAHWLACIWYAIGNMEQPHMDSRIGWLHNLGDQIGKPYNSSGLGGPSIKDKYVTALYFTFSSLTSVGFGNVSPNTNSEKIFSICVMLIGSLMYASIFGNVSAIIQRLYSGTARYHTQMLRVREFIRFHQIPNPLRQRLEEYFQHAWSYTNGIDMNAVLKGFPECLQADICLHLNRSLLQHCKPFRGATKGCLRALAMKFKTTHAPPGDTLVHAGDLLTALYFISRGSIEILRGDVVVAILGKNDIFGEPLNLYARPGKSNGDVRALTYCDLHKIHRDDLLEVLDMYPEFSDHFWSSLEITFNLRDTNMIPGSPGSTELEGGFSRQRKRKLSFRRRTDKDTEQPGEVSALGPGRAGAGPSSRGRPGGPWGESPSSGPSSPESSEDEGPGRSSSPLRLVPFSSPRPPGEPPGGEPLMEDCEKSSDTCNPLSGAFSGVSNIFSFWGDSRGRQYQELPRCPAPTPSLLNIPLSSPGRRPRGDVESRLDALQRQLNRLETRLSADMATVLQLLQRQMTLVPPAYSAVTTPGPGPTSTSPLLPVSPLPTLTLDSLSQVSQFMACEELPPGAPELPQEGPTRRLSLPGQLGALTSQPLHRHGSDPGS
# [12] = test system: collagen 1A expression in HaCaT cells; experiment: Collagen 1A expression in HaCaT cells (Western blot); assay type: cell-based, human; conditions: 2 or 5 μM, 24 hours, FIG. 5A
# Description: as §1
# [13] = test system: WS cells; experiment: Immunofluorescence staining of Werner syndrome (WS) patient cells (nuclear morphology, proliferation, H3K9me3); assay type: cell-based, Human
# Description: as §2, §3, §4, §5, §6
# To measure the cell proliferation, DAPI stained cells were counted from immunofluorescence images.
# [14] = test system: progerin expression in progerin-transfected 293 cells; experiment: Progerin expression analysis in progerin-transfected 293 cells (Western blot); assay type: cell-based; conditions: 24 hours, FIG. 1D
# Description: HEK293 cell line, obtained from ATCC, were maintained in liquid medium (DMEM) containing 10% FBS and 1% antibiotics at 37° C.
# Whole-cell lysates were prepared in RIPA.
# 15 μg of cell extracts were separated by SDS-PAGE and transferred onto a PVDF membrane.
# The membrane was incubated for 1 h to overnight at 4° C. with primary antibody, followed by reaction with a secondary antibody at room temperature for 1 h.
# Peroxidase activity was detected by chemiluminescence with ECL kit (Intron, Seoul, Korea) as recommended by its manufacturer.
# [15] = test system: Plasma protein; experiment: Plasma protein binding, rat; assay type: in vitro ADME
# Description: as §7
# [16] = test system: Plasma protein; experiment: Plasma protein binding, human; assay type: in vitro ADME
# Description: as §7
# [17] = target: CYP2C9 (Homo sapiens, UniProt P11712); experiment: CYP inhibition CYP2C9; assay type: in vitro ADME
# Sequence of CYP2C9 (P11712 whole entry): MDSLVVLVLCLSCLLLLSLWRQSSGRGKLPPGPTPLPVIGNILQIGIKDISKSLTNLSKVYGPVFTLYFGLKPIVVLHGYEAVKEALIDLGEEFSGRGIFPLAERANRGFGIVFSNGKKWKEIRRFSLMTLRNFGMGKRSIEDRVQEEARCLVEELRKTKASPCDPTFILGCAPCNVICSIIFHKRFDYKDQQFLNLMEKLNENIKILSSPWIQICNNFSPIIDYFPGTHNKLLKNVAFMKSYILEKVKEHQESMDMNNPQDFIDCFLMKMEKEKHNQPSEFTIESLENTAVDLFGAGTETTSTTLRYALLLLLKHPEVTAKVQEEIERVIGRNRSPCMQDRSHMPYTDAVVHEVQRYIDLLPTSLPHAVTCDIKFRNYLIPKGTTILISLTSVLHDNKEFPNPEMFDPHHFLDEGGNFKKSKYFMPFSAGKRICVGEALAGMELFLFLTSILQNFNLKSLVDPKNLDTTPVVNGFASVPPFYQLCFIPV
# Description: as §7
# [18] = Liver microsomal stability, human; assay type: in vitro ADME
# Description: as §7
# [19] = Lmna^G609G/G609G mice, 20 mg/kg i.p injection twice per week from 5 week age, FIG. 2C
# [20] = Lmna^G609G/G609G mice, oral gavage 50 mg/kg daily in monoolein solution from 5 weeks old, FIG. 3C
# [21] = Lmna^wt/G609G mice, injection started from 43 weeks old, FIG. 2E
structure (smiles),measurement,setting,value
"CC1(C)Oc2cc3oc(=O)ccc3cc2C[C@@H]1OC/C=C/c1ccccc1 [SLC-D011, (7S)-(+)-8,8-dimethyl-7-(3-phenyl-allyloxy)-7,8-dihydro-6H-pyrano[3,2-g]chromen-2-one]",life-span extended to,"[1]; Lamn^G609G/G609G mice, i.p injection",20 weeks
same,body size and gross morphology,"[1]; Lamn^G609G/G609G mice, i.p injection, FIG. 2D",body size increase and gross morphology were also improved
same,lifespan extension,"[1]; Lamn^G609G/G609G mice, oral administration in olein-based solution",4.5 weeks
same,average (ave) life span,[1]; [19],19.5 weeks
same,maximum (max) life span,[1]; [19],21 weeks
same,body weight increase compared to vehicle group,"[1]; Lmna^G609G/G609G mice, oral administration, FIG. 3D",about 35%
same,body size at 8 weeks old,"[1]; Lmna^G609G/G609G mice, oral administration, FIG. 3E",apparently larger than that of vehicle-mouse
same,average life span,[1]; [20],19.3 weeks
same,maximum life span,[1]; [20],19.5 weeks
same,Liver microsomal stability (% remaining during 30 min) Rat (%),[2],17.4%
same,collagen expression in fibroblasts,[3],increasing collagen expression
same,Liver microsomal stability (% remaining during 30 min) Mouse (%),[4],59.7%
same,Plasma stability (% remaining) Rat 30 min,[5]; 30 min,83.6 % remaining
same,Plasma stability (% remaining) Rat 120 min,[5]; 120 min,75.1 % remaining
same,bioavailability,"[6]; blood, oral, PK analysis, read-out: bioavailability (B.A.)",66%
same,PK profile,[6]; in vivo PK analysis,proper PK profile
same,nuclear abnormality of HGPS cells,"[7]; HGPS cells incubated 48 hr, FIG. 1E",improved nuclear abnormality of HGPS cells
same,progerin expression in HGPS cells,"[7]; HGPS cells incubated 48 hr, progerin staining, FIG. 1E",reduces progerin expression
same,H3K9me3 expression in HGPS cells,"[7]; immunostaining, FIG. 1F",induced H3K9me3 expression
same,CYP inhibition CYP2C19,[8],28.8
same,Plasma stability (% remaining) Human 30 min,[9]; 30 min,>100 % remaining
same,Plasma stability (% remaining) Human 120 min,[9]; 120 min,>100 % remaining
same,lifespan extended from 45 to,[10]; Lamn^wt/G609G model,64 weeks
same,average life span,[10]; [21],65 weeks
same,maximum (max) life span,[10]; [21],66 weeks
same,morphology such as hair condition and body size,"[10]; Lmna^wt/G609G mouse, FIG. 2F",greatly improved
same,hERG ion channel inhibition,[11],severe hERG inhibition was not observed
same,collagen expression in keratinocytes,[12],increasing collagen expression
same,nuclear morphology of WS cells,"[13]; WS cells incubated 48 hr, FIG. 4F",improved nuclear morphology
same,H3K9me3 expression in WS cells,"[13]; WS cells incubated 48 hr, FIG. 4G",induced expression of H3K9me3
same,cell proliferation of WS cells,"[13]; WS patient cells, FIG. 4F",improved nuclear morphology and cell proliferation
same,progerin expression,[14],inhibiting progerin expression; also recorded: obviously suppresses progerin expression
same,Plasma protein binding Rat (% Bound),[15],99.8 % Bound
same,Plasma protein binding Human (% Bound),[16],99.9 % Bound
same,CYP inhibition CYP2C9,[17],78.4
same,Liver microsomal stability (% remaining during 30 min) Human (%),[18],21.5%
